{
  "source": "ChEMBL document CHEMBL1141723",
  "about": "“Specific targeting of metzincin family members with small-molecule inhibitors: progress toward a multifarious challenge” (Bioorg Med Chem, 2008)",
  "key": {"[1]": {"target": "T1, Matrilysin (Homo sapiens) (UniProt P09237)", "T1 sequence (whole entry)": "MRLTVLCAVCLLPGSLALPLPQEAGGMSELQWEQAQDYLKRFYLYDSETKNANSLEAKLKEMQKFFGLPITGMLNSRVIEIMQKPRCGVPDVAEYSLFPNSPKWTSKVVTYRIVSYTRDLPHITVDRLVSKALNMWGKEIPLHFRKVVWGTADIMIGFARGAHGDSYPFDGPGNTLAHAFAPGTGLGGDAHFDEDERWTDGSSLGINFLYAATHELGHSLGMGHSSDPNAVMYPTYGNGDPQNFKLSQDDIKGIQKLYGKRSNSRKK", "assay": "Inhibition of MMP7 up to 100 uM"}, "[2]": {"target": "T2, Matrix metalloproteinase-9 (Homo sapiens, UniProt P14780)", "T2 sequence (P14780 whole entry)": "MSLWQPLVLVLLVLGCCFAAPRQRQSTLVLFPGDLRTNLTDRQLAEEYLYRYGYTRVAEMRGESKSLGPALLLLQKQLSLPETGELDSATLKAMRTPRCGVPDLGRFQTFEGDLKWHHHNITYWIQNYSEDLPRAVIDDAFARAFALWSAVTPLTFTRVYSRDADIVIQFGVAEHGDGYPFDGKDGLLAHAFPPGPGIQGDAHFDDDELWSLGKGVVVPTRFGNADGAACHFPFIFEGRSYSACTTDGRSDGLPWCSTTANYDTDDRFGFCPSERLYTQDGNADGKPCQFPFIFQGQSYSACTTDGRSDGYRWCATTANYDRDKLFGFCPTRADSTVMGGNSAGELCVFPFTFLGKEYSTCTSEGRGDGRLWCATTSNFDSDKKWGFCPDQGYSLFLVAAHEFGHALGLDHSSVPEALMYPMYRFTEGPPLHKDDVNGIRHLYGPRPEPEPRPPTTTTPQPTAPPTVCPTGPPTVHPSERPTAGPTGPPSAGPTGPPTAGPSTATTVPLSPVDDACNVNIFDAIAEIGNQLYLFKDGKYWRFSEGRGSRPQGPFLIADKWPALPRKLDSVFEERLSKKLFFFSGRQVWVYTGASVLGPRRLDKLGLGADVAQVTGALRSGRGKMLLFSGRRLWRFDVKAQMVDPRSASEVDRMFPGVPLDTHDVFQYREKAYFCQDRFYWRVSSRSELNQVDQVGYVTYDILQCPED", "assay": "Inhibition of MMP9 up to 100 uM"}, "[3]": {"target": "T3, Macrophage metalloelastase (Homo sapiens, UniProt P39900)", "T3 sequence (P39900 106-470 limits assumed)": "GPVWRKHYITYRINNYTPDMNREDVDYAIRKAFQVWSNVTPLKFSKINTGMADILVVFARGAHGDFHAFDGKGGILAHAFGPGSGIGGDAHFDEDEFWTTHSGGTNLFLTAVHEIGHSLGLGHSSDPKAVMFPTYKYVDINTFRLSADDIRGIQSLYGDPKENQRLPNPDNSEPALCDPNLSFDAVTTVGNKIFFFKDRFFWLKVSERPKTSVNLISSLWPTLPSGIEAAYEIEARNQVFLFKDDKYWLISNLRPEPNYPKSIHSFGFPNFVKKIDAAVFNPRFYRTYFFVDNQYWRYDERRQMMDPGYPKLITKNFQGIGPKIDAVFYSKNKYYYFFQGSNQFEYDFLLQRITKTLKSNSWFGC", "assay": "Inhibition of MMP12 up to 100 uM"}, "[4]": {"target": "Matrix metalloproteinase-16 (Homo sapiens, UniProt P51512)", "sequence (P51512 whole entry)": "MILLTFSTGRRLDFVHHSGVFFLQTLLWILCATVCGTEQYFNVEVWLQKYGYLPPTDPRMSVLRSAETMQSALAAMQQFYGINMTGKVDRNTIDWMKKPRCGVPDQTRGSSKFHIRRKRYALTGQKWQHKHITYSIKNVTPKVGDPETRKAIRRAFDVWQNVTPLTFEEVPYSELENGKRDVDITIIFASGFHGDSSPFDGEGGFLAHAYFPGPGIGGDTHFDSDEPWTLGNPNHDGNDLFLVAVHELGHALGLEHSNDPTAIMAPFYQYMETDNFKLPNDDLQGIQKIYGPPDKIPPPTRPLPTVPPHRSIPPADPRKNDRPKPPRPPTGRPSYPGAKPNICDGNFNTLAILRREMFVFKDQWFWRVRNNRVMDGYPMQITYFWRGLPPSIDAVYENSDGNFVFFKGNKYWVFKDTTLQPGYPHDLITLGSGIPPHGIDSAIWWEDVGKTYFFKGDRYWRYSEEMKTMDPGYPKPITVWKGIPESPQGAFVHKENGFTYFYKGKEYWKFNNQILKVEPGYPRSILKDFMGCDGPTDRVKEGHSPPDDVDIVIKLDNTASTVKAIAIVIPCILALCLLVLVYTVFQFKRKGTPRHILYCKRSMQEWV", "assay": "Inhibition of MMP16 up to 100 uM"}, "[5]": {"target": "T4, 72 kDa type IV collagenase (Homo sapiens, UniProt P08253)", "assay": "Inhibition of MMP2 up to 100 uM"}, "[6]": {"target": "T5, Matrix metalloproteinase-14 (Homo sapiens, UniProt P50281)", "assay": "Inhibition of MMP14 up to 100 uM"}, "Stromelysin-2": {"target": "Stromelysin-2 (Homo sapiens, UniProt P09238)", "sequence (P09238 99-476 limits assumed)": "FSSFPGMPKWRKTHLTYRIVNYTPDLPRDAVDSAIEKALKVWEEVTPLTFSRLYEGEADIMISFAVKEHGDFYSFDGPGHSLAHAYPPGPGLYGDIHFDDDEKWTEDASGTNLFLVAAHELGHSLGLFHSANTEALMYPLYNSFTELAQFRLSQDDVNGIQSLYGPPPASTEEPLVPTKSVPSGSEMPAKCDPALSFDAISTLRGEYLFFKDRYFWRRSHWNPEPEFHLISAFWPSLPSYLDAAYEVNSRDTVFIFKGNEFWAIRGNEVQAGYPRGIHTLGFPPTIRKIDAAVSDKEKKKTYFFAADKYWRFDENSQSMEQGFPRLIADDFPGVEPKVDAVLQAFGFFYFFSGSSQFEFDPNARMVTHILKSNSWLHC", "assay": "Inhibition of MMP10 up to 100 uM"}, "[7]": {"target": "T6, Interstitial collagenase (Homo sapiens) (UniProt P03956)", "T6 sequence (whole entry)": "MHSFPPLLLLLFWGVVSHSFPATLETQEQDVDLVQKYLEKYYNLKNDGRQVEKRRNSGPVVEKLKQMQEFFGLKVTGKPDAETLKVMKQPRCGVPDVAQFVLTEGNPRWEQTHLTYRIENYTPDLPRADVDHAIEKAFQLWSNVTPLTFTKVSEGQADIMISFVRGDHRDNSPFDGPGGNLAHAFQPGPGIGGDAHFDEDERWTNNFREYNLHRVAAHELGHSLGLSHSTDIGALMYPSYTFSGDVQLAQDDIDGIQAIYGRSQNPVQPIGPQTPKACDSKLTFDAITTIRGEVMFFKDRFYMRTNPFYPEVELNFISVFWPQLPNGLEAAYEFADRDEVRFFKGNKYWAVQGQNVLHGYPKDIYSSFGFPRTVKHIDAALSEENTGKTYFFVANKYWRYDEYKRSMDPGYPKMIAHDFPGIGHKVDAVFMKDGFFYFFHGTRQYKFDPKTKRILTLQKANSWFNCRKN", "assay": "Inhibition of MMP1 at 100 uM"}, "Stromelysin-1 [8]": {"target": "T7, Stromelysin-1 (Homo sapiens, UniProt P08254)", "assay": "Inhibition of MMP3 up to 100 uM"}, "Neutrophil collagenase [9]": {"target": "T8, Neutrophil collagenase (Homo sapiens, UniProt P22894)", "T8 sequence (P22894 101-467 limits assumed)": "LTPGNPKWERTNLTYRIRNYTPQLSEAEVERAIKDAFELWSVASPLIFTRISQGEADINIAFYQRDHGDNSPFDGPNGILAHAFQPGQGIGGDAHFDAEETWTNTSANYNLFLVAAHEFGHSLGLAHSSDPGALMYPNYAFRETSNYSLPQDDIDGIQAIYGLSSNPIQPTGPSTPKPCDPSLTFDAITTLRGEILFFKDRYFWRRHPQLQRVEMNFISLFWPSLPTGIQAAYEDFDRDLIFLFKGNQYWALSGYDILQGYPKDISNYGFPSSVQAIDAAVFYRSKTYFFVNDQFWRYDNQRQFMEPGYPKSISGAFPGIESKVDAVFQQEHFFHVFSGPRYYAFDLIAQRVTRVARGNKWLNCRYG", "assay": "Inhibition of MMP8 up to 100 uM"}, "[10]": {"target": "Bone morphogenetic protein 1 (Homo sapiens, UniProt P13497)", "sequence (P13497 whole entry)": "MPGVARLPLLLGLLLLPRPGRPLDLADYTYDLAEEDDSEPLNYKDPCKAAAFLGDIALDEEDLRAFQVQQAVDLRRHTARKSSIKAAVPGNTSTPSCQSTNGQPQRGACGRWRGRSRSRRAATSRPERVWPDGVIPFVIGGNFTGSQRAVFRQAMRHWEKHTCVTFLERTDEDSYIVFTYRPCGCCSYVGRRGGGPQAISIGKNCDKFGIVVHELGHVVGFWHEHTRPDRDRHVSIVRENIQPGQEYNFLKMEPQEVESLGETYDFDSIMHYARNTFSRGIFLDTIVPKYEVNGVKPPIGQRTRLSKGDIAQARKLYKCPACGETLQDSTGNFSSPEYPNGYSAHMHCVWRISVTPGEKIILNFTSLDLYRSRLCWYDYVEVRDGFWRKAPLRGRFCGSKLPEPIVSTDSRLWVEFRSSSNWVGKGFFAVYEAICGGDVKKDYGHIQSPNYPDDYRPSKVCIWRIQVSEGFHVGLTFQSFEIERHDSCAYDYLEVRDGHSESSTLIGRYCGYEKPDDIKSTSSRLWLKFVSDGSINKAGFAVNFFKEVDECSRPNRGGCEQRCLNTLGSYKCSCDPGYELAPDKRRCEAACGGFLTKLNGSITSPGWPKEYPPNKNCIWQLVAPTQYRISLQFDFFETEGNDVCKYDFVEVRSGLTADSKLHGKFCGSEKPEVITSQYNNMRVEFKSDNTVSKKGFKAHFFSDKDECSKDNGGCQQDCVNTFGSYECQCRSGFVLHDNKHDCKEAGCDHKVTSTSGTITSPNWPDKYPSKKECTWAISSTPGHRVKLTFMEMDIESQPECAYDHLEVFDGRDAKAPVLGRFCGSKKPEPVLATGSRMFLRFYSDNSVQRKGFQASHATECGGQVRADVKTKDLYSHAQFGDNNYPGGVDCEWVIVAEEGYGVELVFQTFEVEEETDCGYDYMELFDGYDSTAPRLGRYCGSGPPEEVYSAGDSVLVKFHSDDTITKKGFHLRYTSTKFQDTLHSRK", "assay": "Inhibition of BMP1"}, "Collagenase 3": {"target": "Collagenase 3 (Homo sapiens, UniProt P45452)", "assay": "Inhibition of MMP13"}, "[11]": {"target": "T5, Matrix metalloproteinase-14", "assay": "Inhibition of MMP14"}, "Interstitial collagenase": {"target": "T9, Interstitial collagenase (Homo sapiens, UniProt P03956)", "T9 sequence (P03956 whole entry)": "T6 sequence (whole entry)"}, "[12]": {"target": "T2, Matrix metalloproteinase-9", "assay": "Inhibition of MMP9"}, "Stromelysin-1 [13]": {"target": "T7, Stromelysin-1"}, "[14]": {"target": "T4, 72 kDa type IV collagenase"}, "[15]": {"target": "Disintegrin and metalloproteinase domain-containing protein 9 (Homo sapiens, UniProt Q13443)", "sequence (Q13443 whole entry, the tested form may be a part)": "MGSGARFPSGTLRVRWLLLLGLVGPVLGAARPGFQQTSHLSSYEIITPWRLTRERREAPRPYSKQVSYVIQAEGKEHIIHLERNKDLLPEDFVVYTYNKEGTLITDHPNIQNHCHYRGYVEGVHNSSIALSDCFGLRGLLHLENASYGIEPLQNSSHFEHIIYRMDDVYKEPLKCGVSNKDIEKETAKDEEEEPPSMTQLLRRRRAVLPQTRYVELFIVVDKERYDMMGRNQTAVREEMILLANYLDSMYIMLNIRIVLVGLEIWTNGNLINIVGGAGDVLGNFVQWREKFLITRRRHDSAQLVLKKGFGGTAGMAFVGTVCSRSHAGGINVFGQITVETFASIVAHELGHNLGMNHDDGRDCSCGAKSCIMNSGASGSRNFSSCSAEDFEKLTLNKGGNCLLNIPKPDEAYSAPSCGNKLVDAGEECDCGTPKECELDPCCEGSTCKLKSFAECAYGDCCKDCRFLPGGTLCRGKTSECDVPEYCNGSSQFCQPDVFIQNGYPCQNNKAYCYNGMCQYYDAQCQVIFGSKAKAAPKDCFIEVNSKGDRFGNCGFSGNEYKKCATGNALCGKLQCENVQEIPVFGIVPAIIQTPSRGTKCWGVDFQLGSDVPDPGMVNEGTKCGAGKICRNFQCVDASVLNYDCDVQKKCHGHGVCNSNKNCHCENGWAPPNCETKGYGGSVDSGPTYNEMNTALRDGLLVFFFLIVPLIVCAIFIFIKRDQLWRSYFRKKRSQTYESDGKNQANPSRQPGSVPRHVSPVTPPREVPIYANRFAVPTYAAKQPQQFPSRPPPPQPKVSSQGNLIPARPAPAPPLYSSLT"}, "[16]": {"target": "Disintegrin and metalloproteinase domain-containing protein 33 (Homo sapiens, UniProt Q9BZ11)", "sequence (Q9BZ11 whole entry, the tested form may be a part)": "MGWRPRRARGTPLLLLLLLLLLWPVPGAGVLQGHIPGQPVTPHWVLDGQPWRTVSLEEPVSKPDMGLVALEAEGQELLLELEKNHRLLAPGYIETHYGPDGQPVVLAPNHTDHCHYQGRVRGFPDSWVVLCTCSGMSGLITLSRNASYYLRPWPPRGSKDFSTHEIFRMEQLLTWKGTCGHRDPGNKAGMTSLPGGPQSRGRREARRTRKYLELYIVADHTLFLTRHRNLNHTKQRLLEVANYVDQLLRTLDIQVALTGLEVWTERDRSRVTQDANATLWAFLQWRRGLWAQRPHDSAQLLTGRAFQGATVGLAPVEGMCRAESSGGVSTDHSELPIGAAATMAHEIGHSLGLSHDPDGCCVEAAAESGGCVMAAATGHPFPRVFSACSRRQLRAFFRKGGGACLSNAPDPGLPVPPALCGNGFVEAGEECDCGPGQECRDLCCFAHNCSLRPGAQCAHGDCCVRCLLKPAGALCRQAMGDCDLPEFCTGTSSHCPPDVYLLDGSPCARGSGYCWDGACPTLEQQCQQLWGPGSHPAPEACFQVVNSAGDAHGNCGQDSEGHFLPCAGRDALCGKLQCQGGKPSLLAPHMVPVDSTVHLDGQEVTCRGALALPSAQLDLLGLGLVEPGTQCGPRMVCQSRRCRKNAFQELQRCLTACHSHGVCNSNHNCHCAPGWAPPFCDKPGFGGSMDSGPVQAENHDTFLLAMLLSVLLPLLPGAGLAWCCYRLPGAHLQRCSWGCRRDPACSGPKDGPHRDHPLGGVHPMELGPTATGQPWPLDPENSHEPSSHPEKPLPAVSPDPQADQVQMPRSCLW", "assay": "Inhibition of ADAM33"}, "Matrilysin": {"target": "T10, Matrilysin (Homo sapiens, UniProt P09237)", "T10 sequence (P09237 whole entry)": "T1 sequence (whole entry)"}, "[17]": {"target": "T3, Macrophage metalloelastase", "assay": "Inhibition of MMP12"}, "[18]": {"target": "T1, Matrilysin (Homo sapiens)", "assay": "Inhibition of MMP7"}, "[19]": {"target": "T6, Interstitial collagenase (Homo sapiens)", "assay": "Inhibition of MMP1"}, "[20]": {"target": "T11, Matrix metalloproteinase-17 (Homo sapiens) (UniProt Q9ULZ9)", "T11 sequence (whole entry)": "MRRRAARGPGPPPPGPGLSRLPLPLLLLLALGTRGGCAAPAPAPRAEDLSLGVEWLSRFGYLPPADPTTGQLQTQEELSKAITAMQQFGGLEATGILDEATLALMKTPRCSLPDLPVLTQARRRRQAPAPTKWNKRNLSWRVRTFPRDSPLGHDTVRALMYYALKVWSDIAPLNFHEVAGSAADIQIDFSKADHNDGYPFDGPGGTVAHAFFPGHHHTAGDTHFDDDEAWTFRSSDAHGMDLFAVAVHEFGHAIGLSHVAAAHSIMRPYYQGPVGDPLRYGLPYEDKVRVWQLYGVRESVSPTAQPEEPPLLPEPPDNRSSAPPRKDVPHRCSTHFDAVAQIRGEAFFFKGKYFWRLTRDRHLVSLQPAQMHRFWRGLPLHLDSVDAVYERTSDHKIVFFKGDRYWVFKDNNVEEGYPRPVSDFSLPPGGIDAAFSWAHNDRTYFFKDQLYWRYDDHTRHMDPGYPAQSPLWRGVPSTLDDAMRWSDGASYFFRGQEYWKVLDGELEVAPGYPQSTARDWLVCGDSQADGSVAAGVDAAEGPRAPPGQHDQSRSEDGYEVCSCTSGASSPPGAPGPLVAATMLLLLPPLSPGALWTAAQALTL", "assay": "Inhibition of MMP17"}, "Neutrophil collagenase [21]": {"target": "T8, Neutrophil collagenase", "assay": "Inhibition of MMP8"}, "[22]": {"target": "T6, Interstitial collagenase (Homo sapiens)", "assay": "Inhibition of MMP1 up to 60 uM"}, "[23]": {"target": "T1, Matrilysin (Homo sapiens)", "assay": "Inhibition of MMP7 up to 60 uM"}, "[24]": {"assay": "Selectivity for MMP13 over MMP12"}, "[25]": {"assay": "Selectivity for MMP13 over MMP3"}, "[26]": {"assay": "Selectivity for MMP13 over MMP9"}, "[27]": {"assay": "Selectivity for MMP13 over MMP8"}, "[28]": {"assay": "Selectivity for MMP13 over MMP14"}, "[29]": {"assay": "Selectivity for MMP13 over MMP1"}, "[30]": {"assay": "Selectivity for MMP13 over MMP2"}},
  "note": "The source made the active and inactive calls. The rule behind the calls is not given here.",
  "data": [
    {"smiles": "O=C(NCc1cccnc1)c1cc(C(=O)NCc2cccnc2)ncn1", "values": [
      {"measurement": "Activity", "setting": "[1]", "result": "inactive"},
      {"measurement": "Activity", "setting": "[2]", "result": "inactive"},
      {"measurement": "Activity", "setting": "[3]", "result": "inactive"},
      {"measurement": "Activity", "setting": "[4]", "result": "inactive"},
      {"measurement": "Activity", "setting": "[5]", "result": "inactive"},
      {"measurement": "Activity", "setting": "[6]", "result": "inactive"},
      {"measurement": "Activity", "setting": "Stromelysin-2", "result": "inactive"},
      {"measurement": "Activity", "setting": "[7]", "result": "inactive"},
      {"measurement": "Activity", "setting": "Stromelysin-1 [8]", "result": "inactive"},
      {"measurement": "Activity", "setting": "Neutrophil collagenase [9]", "result": "inactive"}
    ]},
    {"smiles": "CS(=O)(=O)NCc1noc([C@H](CCCC2CCCCC2)CC(=O)NO)n1", "values": [
      {"measurement": "Ki", "setting": "[10]", "result": 0.011, "unit": "µM"},
      {"measurement": "Ki", "setting": "Collagenase 3", "result": 91, "unit": "µM"},
      {"measurement": "Ki", "setting": "[11]", "result": "> 100", "unit": "µM"},
      {"measurement": "Ki", "setting": "Interstitial collagenase", "result": 0.001, "unit": "µM"},
      {"measurement": "Ki", "setting": "[12]", "result": "> 100", "unit": "µM"},
      {"measurement": "Ki", "setting": "Stromelysin-1 [13]", "result": "> 100", "unit": "µM"}
    ]},
    {"smiles": "COC(=O)N1CC2(CC2)C[C@H](C(=O)NO)[C@H]1C(=O)N1CC=C(c2ccccc2)CC1", "values": [
      {"measurement": "IC50", "setting": "[14]", "result": 0.035, "unit": "µM"},
      {"measurement": "IC50", "setting": "[15]", "result": "> 5", "unit": "µM"},
      {"measurement": "IC50", "setting": "[16]", "result": 1.03, "unit": "µM"},
      {"measurement": "IC50", "setting": "Interstitial collagenase", "result": "> 5", "unit": "µM"},
      {"measurement": "IC50", "setting": "[12]", "result": 0.304, "unit": "µM"},
      {"measurement": "IC50", "setting": "Stromelysin-1 [13]", "result": 3.56, "unit": "µM"},
      {"measurement": "IC50", "setting": "Matrilysin", "result": "> 5", "unit": "µM"}
    ]},
    {"smiles": "COc1ccc(CNC(=O)c2cc3c(=O)n(Cc4ccc(C(=O)O)cc4)cnc3cn2)cc1", "values": [
      {"measurement": "Activity", "setting": "[17]", "result": "inactive"},
      {"measurement": "Activity", "setting": "[18]", "result": "inactive"},
      {"measurement": "Activity", "setting": "[11]", "result": "inactive"},
      {"measurement": "Activity", "setting": "[19]", "result": "inactive"},
      {"measurement": "Activity", "setting": "[20]", "result": "inactive"},
      {"measurement": "Activity", "setting": "[12]", "result": "inactive"},
      {"measurement": "Activity", "setting": "Neutrophil collagenase [21]", "result": "inactive"}
    ]},
    {"smiles": "O=S(=O)(CCC(S)CS)c1ccc(Oc2ccccc2)cc1", "note": "(centres undefined)", "values": [
      {"measurement": "Ki", "setting": "[14]", "result": 0.046, "unit": "µM"},
      {"measurement": "Ki", "setting": "[11]", "result": 0.21, "unit": "µM"},
      {"measurement": "Activity", "setting": "[22]", "result": "inactive"},
      {"measurement": "Activity", "setting": "[23]", "result": "inactive"},
      {"measurement": "Ki", "setting": "[12]", "result": 0.1, "unit": "µM"},
      {"measurement": "Ki", "setting": "Stromelysin-1 [13]", "result": 10, "unit": "µM"}
    ]},
    {"smiles": "COCCC1(Oc2ccc(Oc3ccc(-c4nc(-c5ccc(C#N)cc5)co4)cc3)cc2)C(=O)NC(=O)NC1=O", "values": [
      {"measurement": "fold change (FC)", "setting": "[24]", "result": 619},
      {"measurement": "IC50", "setting": "Collagenase 3", "result": 0.00036, "unit": "µM"},
      {"measurement": "fold change (FC)", "setting": "[25]", "result": 17000},
      {"measurement": "fold change (FC)", "setting": "[26]", "result": 540},
      {"measurement": "fold change (FC)", "setting": "[27]", "result": 394},
      {"measurement": "fold change (FC)", "setting": "[28]", "result": 540},
      {"measurement": "fold change (FC)", "setting": "[29]", "result": 2400},
      {"measurement": "fold change (FC)", "setting": "[30]", "result": 397}
    ]}
  ]
}
